Data: patent US20260266848A1, “COMPOSITIONS AND METHODS FOR DIAGNOSING AND TREATING DYSTONIA” (Duke University, priority 2023, published 2026)

System: DYT-TOR1A MEF EVs
Assay: Quantitative LC-MS/MS proteomics of EVs from drug-treated DYT-TOR1A MEF cultures (ritonavir, salubrinal)
Type: cell-based, mouse
Settings: 20 μM, 24 h

O=C(/C=C/c1ccccc1)NC(NC(=S)Nc1cccc2cccnc12)C(Cl)(Cl)Cl (stereo not drawn) [salubrinal]
DYT disrupted proteins (n=363) with significant corrective effects of salubrinal: 13%
total EV proteins significantly modified by salubrinal (of 1974 proteins): 9%
Acaa1a (ACAA1) EV abundance Log2_FC (DYT1+Sal/DYT1): −0.8007
Ano6 (ANO6) EV abundance Log2_FC (DYT1+Sal/DYT1): −0.3535
Ap1b1 (AP1B1) EV abundance Log2_FC (DYT1+Sal/DYT1): 0.5874
Ar18b (ARL8B) EV abundance Log2_FC (DYT1+Sal/DYT1): −0.08283
Bzw2 (BZW2) EV abundance Log2_FC (DYT1+Sal/DYT1): −0.03057
Cryab (CRYAB) EV abundance Log2_FC (DYT1+Sal/DYT1): 1.025
DIst (DLST) EV abundance Log2_FC (DYT1+Sal/DYT1): −0.5172
Ehd4 (EHD4) EV abundance Log2_FC (DYT1+Sal/DYT1): −0.149
Flna (FLNA) EV abundance Log2_FC (DYT1+Sal/DYT1): −0.07088
Fscn1 (FSCN1) EV abundance Log2_FC (DYT1+Sal/DYT1): −0.1414
Gart (GART) EV abundance Log2_FC (DYT1+Sal/DYT1): 0.05776
Hist1h1b (H1-5) EV abundance Log2_FC (DYT1+Sal/DYT1): −0.1163
Hnrnpc (HNRNPC) EV abundance Log2_FC (DYT1+Sal/DYT1): −0.2845
Ipo9 (IPO9) EV abundance Log2_FC (DYT1+Sal/DYT1): 0.3059
Jam3 (JAM3) EV abundance Log2_FC (DYT1+Sal/DYT1): −0.6132
Lipg (LIPG) EV abundance Log2_FC (DYT1+Sal/DYT1): −0.4507
Lrrc59 (LRRC59) EV abundance Log2_FC (DYT1+Sal/DYT1): −0.4226
Mapk3 (MAPK3) EV abundance Log2_FC (DYT1+Sal/DYT1): 0.6764
Mars (MARS1) EV abundance Log2_FC (DYT1+Sal/DYT1): −0.1637
Mrc2 (MRC2) EV abundance Log2_FC (DYT1+Sal/DYT1): 0.01917
Myh9 (MYH9) EV abundance Log2_FC (DYT1+Sal/DYT1): −0.2742
Ndnf (NDNF) EV abundance Log2_FC (DYT1+Sal/DYT1): −0.5746
Pcmt1 (PCMT1) EV abundance Log2_FC (DYT1+Sal/DYT1): 1.133
Pi4ka (PI4KA) EV abundance Log2_FC (DYT1+Sal/DYT1): −1.039
Pitpnb (PITPNB) EV abundance Log2_FC (DYT1+Sal/DYT1): 0.09822
Prpsap2 (PRPSAP2) EV abundance Log2_FC (DYT1+Sal/DYT1): −0.0814
Psmc5 (PSMC5) EV abundance Log2_FC (DYT1+Sal/DYT1): 0.4458
Psmd12 (PSMD12) EV abundance Log2_FC (DYT1+Sal/DYT1): −0.203
Psme4 (PSME4) EV abundance Log2_FC (DYT1+Sal/DYT1): −0.2099
Ptma (PTMA) EV abundance Log2_FC (DYT1+Sal/DYT1): 1.235
Rap2b (RAP2B) EV abundance Log2_FC (DYT1+Sal/DYT1): −0.3288
Rbm3 (RBM3) EV abundance Log2_FC (DYT1+Sal/DYT1): 0.84
Rhoa (RHOA) EV abundance Log2_FC (DYT1+Sal/DYT1): 0.2121
Rpl10 (RPL10) EV abundance Log2_FC (DYT1+Sal/DYT1): −0.05107
Rpl13a (RPL13A) EV abundance Log2_FC (DYT1+Sal/DYT1): −0.1384
Rps13 (RPS13) EV abundance Log2_FC (DYT1+Sal/DYT1): 0.02541
Sec31a (SEC31A) EV abundance Log2_FC (DYT1+Sal/DYT1): 0.1051
Slc2a1 (SLC2A1) EV abundance Log2_FC (DYT1+Sal/DYT1): 0.1088
Stom (STOM) EV abundance Log2_FC (DYT1+Sal/DYT1): 0.01864
Tardbp (TARDBP) EV abundance Log2_FC (DYT1+Sal/DYT1): 0.4388
Tgfb2 (TGFB2) EV abundance Log2_FC (DYT1+Sal/DYT1): 0.3062
Tln1 (TLN1) EV abundance Log2_FC (DYT1+Sal/DYT1): −0.1915
Tln2 (TLN2) EV abundance Log2_FC (DYT1+Sal/DYT1): −0.3236
Tubb1 (TUBB1) EV abundance Log2_FC (DYT1+Sal/DYT1): −0.6949
Usp7 (USP7) EV abundance Log2_FC (DYT1+Sal/DYT1): 1.365
Wdr26 (WDR26) EV abundance Log2_FC (DYT1+Sal/DYT1): −0.03177
Zyx (ZYX) EV abundance Log2_FC (DYT1+Sal/DYT1): −0.2196
Acaa1a (ACAA1) EV abundance Log2_FC (DYT1/DYT1+Sal (inverse ratio)): 0.8007
Ano6 (ANO6) EV abundance Log2_FC (DYT1/DYT1+Sal (inverse ratio)): 0.3535
Ap1b1 (AP1B1) EV abundance Log2_FC (DYT1/DYT1+Sal (inverse ratio)): −0.5874
Arl8b (ARL8B) EV abundance Log2_FC (DYT1/DYT1+Sal (inverse ratio)): 0.08283
Bzw2 (BZW2) EV abundance Log2_FC (DYT1/DYT1+Sal (inverse ratio)): 0.03057
Cryab (CRYAB) EV abundance Log2_FC (DYT1/DYT1+Sal (inverse ratio)): −1.025
DIst (DLST) EV abundance Log2_FC (DYT1/DYT1+Sal (inverse ratio)): 0.5172
Ehd4 (EHD4) EV abundance Log2_FC (DYT1/DYT1+Sal (inverse ratio)): 0.149
Flna (FLNA) EV abundance Log2_FC (DYT1/DYT1+Sal (inverse ratio)): 0.07088
Fscn1 (FSCN1) EV abundance Log2_FC (DYT1/DYT1+Sal (inverse ratio)): 0.1414
Gart (GART) EV abundance Log2_FC (DYT1/DYT1+Sal (inverse ratio)): −0.05776
Hist1h1b (H1-5) EV abundance Log2_FC (DYT1/DYT1+Sal (inverse ratio)): 0.1163
Hnrnpc (HNRNPC) EV abundance Log2_FC (DYT1/DYT1+Sal (inverse ratio)): 0.2845
Ipo9 (IPO9) EV abundance Log2_FC (DYT1/DYT1+Sal (inverse ratio)): −0.3059
Jam3 (JAM3) EV abundance Log2_FC (DYT1/DYT1+Sal (inverse ratio)): 0.6132
Lipg (LIPG) EV abundance Log2_FC (DYT1/DYT1+Sal (inverse ratio)): 0.4507
Lrrc59 (LRRC59) EV abundance Log2_FC (DYT1/DYT1+Sal (inverse ratio)): 0.4226
Mapk3 (MAPK3) EV abundance Log2_FC (DYT1/DYT1+Sal (inverse ratio)): −0.6764
Mars (MARS1) EV abundance Log2_FC (DYT1/DYT1+Sal (inverse ratio)): 0.1637
Mrc2 (MRC2) EV abundance Log2_FC (DYT1/DYT1+Sal (inverse ratio)): −0.01917
Myh9 (MYH9) EV abundance Log2_FC (DYT1/DYT1+Sal (inverse ratio)): 0.2742
Ndnf (NDNF) EV abundance Log2_FC (DYT1/DYT1+Sal (inverse ratio)): 0.5746
Pcmt1 (PCMT1) EV abundance Log2_FC (DYT1/DYT1+Sal (inverse ratio)): −1.133
Pi4ka (PI4KA) EV abundance Log2_FC (DYT1/DYT1+Sal (inverse ratio)): 1.039
Pitpnb (PITPNB) EV abundance Log2_FC (DYT1/DYT1+Sal (inverse ratio)): −0.09822
Prpsap2 (PRPSAP2) EV abundance Log2_FC (DYT1/DYT1+Sal (inverse ratio)): 0.0814
Psmc5 (PSMC5) EV abundance Log2_FC (DYT1/DYT1+Sal (inverse ratio)): −0.4458
Psmd12 (PSMD12) EV abundance Log2_FC (DYT1/DYT1+Sal (inverse ratio)): 0.203
Psme4 (PSME4) EV abundance Log2_FC (DYT1/DYT1+Sal (inverse ratio)): 0.2099
Ptma (PTMA) EV abundance Log2_FC (DYT1/DYT1+Sal (inverse ratio)): −1.235
Rap2b (RAP2B) EV abundance Log2_FC (DYT1/DYT1+Sal (inverse ratio)): 0.3288
Rbm3 (RBM3) EV abundance Log2_FC (DYT1/DYT1+Sal (inverse ratio)): −0.84
Rhoa (RHOA) EV abundance Log2_FC (DYT1/DYT1+Sal (inverse ratio)): −0.2121
Rpl10 (RPL10) EV abundance Log2_FC (DYT1/DYT1+Sal (inverse ratio)): 0.05107
Rpl13a (RPL13A) EV abundance Log2_FC (DYT1/DYT1+Sal (inverse ratio)): 0.1384
Rps13 (RPS13) EV abundance Log2_FC (DYT1/DYT1+Sal (inverse ratio)): −0.02541
Sec31a (SEC31A) EV abundance Log2_FC (DYT1/DYT1+Sal (inverse ratio)): −0.1051
Slc2a1 (SLC2A1) EV abundance Log2_FC (DYT1/DYT1+Sal (inverse ratio)): −0.1088
Stom (STOM) EV abundance Log2_FC (DYT1/DYT1+Sal (inverse ratio)): −0.01864
Tardbp (TARDBP) EV abundance Log2_FC (DYT1/DYT1+Sal (inverse ratio)): −0.4388
Tgfb2 (TGFB2) EV abundance Log2_FC (DYT1/DYT1+Sal (inverse ratio)): −0.3062
Tln1 (TLN1) EV abundance Log2_FC (DYT1/DYT1+Sal (inverse ratio)): 0.1915
Tln2 (TLN2) EV abundance Log2_FC (DYT1/DYT1+Sal (inverse ratio)): 0.3236
Tubb1 (TUBB1) EV abundance Log2_FC (DYT1/DYT1+Sal (inverse ratio)): 0.6949
Usp7 (USP7) EV abundance Log2_FC (DYT1/DYT1+Sal (inverse ratio)): −1.365
Wdr26 (WDR26) EV abundance Log2_FC (DYT1/DYT1+Sal (inverse ratio)): 0.03177
Zyx (ZYX) EV abundance Log2_FC (DYT1/DYT1+Sal (inverse ratio)): 0.2196
